# Experimental data from patent US10280138B2, “Nitric oxide donating derivatives of fluprostenol” (NICOX S.A., priority 2015, dated 2019).
# System: transiently ocular hypertensive New Zealand white rabbits
# Assay: Intraocular pressure (IOP) lowering activity in hypertonic saline-induced IOP increase in rabbits
# Assay type: in vivo
# Settings: for Mean IOP changes vs vehicle and baseline, 60 min: 60 min after topical application, hypertonic saline 5% intravitreal; for Mean IOP changes vs vehicle and baseline, 60 min / IOP60 min reduction vs vehicle / Mean IOP changes vs vehicle and baseline, 90 min / Mean IOP changes vs vehicle and baseline, 180 min / Mean IOP changes vs vehicle and baseline, 300 min / Mean IOP changes vs vehicle and baseline, 120 min / Mean IOP changes vs vehicle and baseline, 240 min / Maximal IOP reduc.: dose (%); for IOP60 min reduction vs vehicle / Delta60 min vs parent drug: 60 minutes after topical administration; for Delta60 min vs parent drug: parent drug bimatoprost (A-1, B-1) or fluprostenol isopropyl ester (Comp. 9-13); for Mean IOP changes vs vehicle and baseline, 90 min: 90 min after topical application; for Mean IOP changes vs vehicle and baseline, 90 min / Mean IOP changes vs vehicle and baseline, 180 min / Mean IOP changes vs vehicle and baseline, 300 min: treatment group B (pneumatonometer); for Mean IOP changes vs vehicle and baseline, 180 min: 180 min after topical application; for Mean IOP changes vs vehicle and baseline, 300 min: 300 min after topical application; for Mean IOP changes vs vehicle and baseline, 120 min: 120 min after topical application; for Mean IOP changes vs vehicle and baseline, 120 min / Mean IOP changes vs vehicle and baseline, 240 min: treatment group A (Tono-Pen VET); for Mean IOP changes vs vehicle and baseline, 240 min: 240 min after topical application; for Maximal IOP reduc.: topical application
# From the text: Intraocular Pressure (IOP) Lowering Activity in Hypertonic Saline-Induced IOP Increase in Rabbits
# Compounds (9), (10), (11), (12) and (13) of the invention and compounds (A-1) and (B-1) disclosed in WO 2009/136281 were directly compared with fluprostenol isopropyl ester and bimatoprost, in the same model of ocular hypertensive rabbit. The hypotensive effects of the two groups of compounds were independently evaluated at different time points and in different sets of hypertensive rabbits.
# Test compounds and dose (equimolar to the correspondent parent drug)
# Vehicle: buffered aqueous solution pH 6, polyoxyl 40 hydrogenated castor oil 5 mg/ml, tromethamine 10 mg/ml, boric acid 6 mg/ml, mannitol 40 mg/ml, edetate disodium 0.5 mg/ml and benzalkonium chloride 0.15 mg/mL
# Male New Zealand white rabbits weighing 2.0-2.5 kg were used in the experiments. The transient increase in IOP was induced by the injection of 0.1 ml of hypertonic saline solution (5%) into the vitreous of both eyes.
# (§1) Intraocular pressure (IOP) was determined using a Tono-Pen VET prior to hypertonic saline injection (basal) and at 30, 60, 120 and 240 min thereafter. Vehicle or tested compound dissolved in the vehicle was instilled immediately after the injection of hypertonic saline into the conjunctival pocket. Eyes were randomly assigned to different treatment groups.
# One drop of 0.4% oxybuprocaine hydrochloride (Novesine, Sandoz) was instilled in each eye immediately before each set of pressure measurements.
# Treatment Groups B (Prior Art Compounds)
# Vehicle: tween 80 0.5%, 0.2 mg/ml benzalkonium chloride, 0.3% DMSO in PBS pH 6.7
# as §1, with “pneumatonometer” for “Tono-Pen VET”, “90, 180” for “120”, “300” for “240”
# The intraocular pressure values measured following topical application of the tested compounds are reported in Table 1 expressed as mean IOP change in treated eyes versus vehicle-treated eyes at same time point and baseline; Table 1 also reports the maximal IOP reduction of the tested compounds expressed in percentage.
Structure (SMILES),"Mean IOP changes vs vehicle and baseline, 60 min [mmHg]",IOP60 min reduction vs vehicle [%],Delta60 min vs parent drug,"Mean IOP changes vs vehicle and baseline, 90 min [mmHg]","Mean IOP changes vs vehicle and baseline, 180 min [mmHg]","Mean IOP changes vs vehicle and baseline, 300 min [mmHg]","Mean IOP changes vs vehicle and baseline, 120 min [mmHg]","Mean IOP changes vs vehicle and baseline, 240 min [mmHg]",Maximal IOP reduc. [%]
"CCNC(=O)CCC/C=C\C[C@@H]1[C@@H](/C=C/[C@@H](O)CCc2ccccc2)[C@H](O)C[C@@H]1O [Bimatoprost, reference compound]",−1.8 ± 2.4,1,0 mmHg,−2.7 ± 2.0,0.8 ± 1.5,0.3 ± 2.6,–,–,–
CC(C)OC(=O)CCC/C=C\C[C@@H]1[C@@H](/C=C/[C@H](COc2cccc(C(F)(F)F)c2)OC(=O)CCCCCO[N+](=O)[O-])[C@H](O)C[C@@H]1O [Comp. (9)],−6.6 ± 0.9,20,−6.5 mmHg,–,–,–,−8.2 ± 1.2,−2.0 ± 0.7,23 ± 3
"CC(C)OC(=O)CCC/C=C\C[C@@H]1[C@@H](/C=C/[C@H](COc2cccc(C(F)(F)F)c2)OC(=O)CCCC(CO[N+](=O)[O-])O[N+](=O)[O-])[C@H](O)C[C@@H]1O (stereo partly drawn) [Comp. (10), (Z)-isopropyl 7-((1R,2R,3R,5S)-2-((3R,E)-3-(5,6-bis(nitrooxy)hexanoyloxy)-4-(3-(trifluoromethyl)phenoxy)but-1-enyl)-3,5-dihydroxycyclopentyl)hept-5-enoate]",−9.2 ± 1.0,28,−9.1 mmHg,–,–,–,−8.8 ± 1.2,−1.2 ± 0.8,26 ± 3
"CC(C)OC(=O)CCC/C=C\C[C@@H]1[C@@H](/C=C/[C@H](COc2cccc(C(F)(F)F)c2)OC(=O)COCCO[N+](=O)[O-])[C@H](O)C[C@@H]1O [Comp. (11), (Z)-isopropyl 7-((1R,2R,3R,5S)-3,5-dihydroxy-2-((R,E)-3-(2-(2-nitrooxyethoxy)acetoxy)-4-(3-(trifluoromethyl)phenoxy)but-1-enyl)cyclopentyl)hept-5-enoate]",−9.7 ± 0.8,32,−9.6 mmHg,–,–,–,−7.4 ± 0.9,−3.2 ± 0.6,37 ± 4
"CC(C)OC(=O)CCC/C=C\C[C@@H]1[C@@H](/C=C/[C@H](COc2cccc(C(F)(F)F)c2)OC(=O)CCOCC(CO[N+](=O)[O-])O[N+](=O)[O-])[C@H](O)C[C@@H]1O (stereo partly drawn) [Comp. (12), (Z)-isopropyl 7-((1R,2R,3R,5S)-2-((3R,E)-3-(3-(2,3-bis(nitrooxy)propoxy)propanoyloxy)-4-(3-(trifluoromethyl)phenoxy)but-1-enyl)-3,5 dihydroxycyclopentyl)hept-5-enoate]",−7.1 ± 0.8,22,−7.0 mmHg,–,–,–,−9.6 ± 1.0,−2.9 ± 0.5,38 ± 3
"O=C(O)CCC/C=C\C[C@@H]1[C@@H](/C=C/[C@H](COc2cccc(C(F)(F)F)c2)OC(=O)CCCC(CO[N+](=O)[O-])O[N+](=O)[O-])[C@H](O)C[C@@H]1O (stereo partly drawn) [Comp. (13), (Z)-7-((1R,2R,3R,5S)-2-((R,E)-3-(5,6-bis(nitrooxy)hexanoyloxy)-4-(3-(trifluoromethyl)phenoxy)but-1-enyl)-3,5-dihydroxycyclopentyl)hept-5-enoic acid]",−8.6 ± 1.2,31,−8.5 mmHg,–,–,–,−6.9 ± 0.9,−0.3 ± 1.0,39 ± 3
"CCNC(=O)CCC/C=C\C[C@@H]1[C@@H](/C=C/[C@H](CCc2ccccc2)OC(=O)CCCO[N+](=O)[O-])[C@H](O)C[C@@H]1O [Compound A-1, (1S,2E)-3-{(1R,2R,3 S,5R)-2-[(2Z)-7-(Ethylamino)-7-oxohept-2-en-1-yl]-3,5-dihydroxycyclopentyl}-1-(2-phenylethyl)prop-2-en-1-yl 4-(nitrooxy) butanoate, reference compound]",−0.06 ± 5.2,4,Not effective,0.03 ± 5.0,1.1 ± 2.8,−1.9 ± 3.2,–,–,3 ± 9
"CCNC(=O)CCC/C=C\C[C@@H]1[C@@H](/C=C/[C@H](CCc2ccccc2)OC(=O)CCCCCO[N+](=O)[O-])[C@H](O)C[C@@H]1O [Compound B-1, (1S,2E)-3-{(1R,2R,3S,5R)-2-[(2Z)-7-(Ethylamino)-7-oxohept-2-en-1-yl]-3,5-dihydroxycyclopentyl}-1-(2-phenylethyl)prop-2-en-1-yl 6-(nitrooxy) hexanoate, reference compound]",−3.9 ± 2.5,7,−2.1 mmHg,−5.6 ± 2.8,5.3 ± 1.5,−3.9 ± 1.9,–,–,10 ± 3
"CC(C)OC(=O)CCC/C=C\C[C@@H]1[C@@H](/C=C/[C@@H](O)COc2cccc(C(F)(F)F)c2)[C@H](O)C[C@@H]1O [Fluprostenol isopropyl ester, reference compound]",−0.08 ± 1.2,3,0 mmHg,–,–,–,−2.0 ± 1.3,−0.4 ± 0.9,–
